Reference: patent US12509460B2 (Skyhawk Therapeutics, Inc., priority 2019, dated 2025)

Assays:
[1] = system: mHTT protein in GM04724 (CAG 70/20) Huntington's disease patient lymphoblast cells; assay: mHTT protein assay, 2B7-MW1 assay via Mesoscale Discovery (MSD); format: cell-based, human; conditions: GM04724 Huntington's disease patient lymphoblasts
Summary of the method: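 Patient lymphoblasts treated 48 h with compound from 10 μM to 0.6 nM. mHTT quantified by MSD 2B7-MW1 immunoassay, whose signal depends on polyQ expansion and HTT size. Viability measured on a replicate plate by CellTiter Glo.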

[2] = system: SMN FL and SMN Δ7 in spinal muscular atrophy (SMA) patient fibroblasts (GM03813, Coriell); assay: Quantitative splicing assay (SMN), qPCR; format: cell-based, human; conditions: Homo sapiens, Fibroblast, 24 h, SMA patient fibroblasts GM03813, 24 h, qPCR; read-out: SMN2 Splicing FL EC50
Experimental: Spinal muscular atrophy (SMA) patient fibroblasts (GM03813, Coriell) are plated in 96-well plates at 50,000 cells/well. […] Treated cells are lysed and cDNA synthesized using the Fast Advanced Cells-to-Ct kit (Thermofisher A35378) according to the manufacturer's instructions. 2 μL of each cDNA are used in qPCR reactions. […] Reactions are run in a Quant Studio 6 qPCR instrument with default settings.

[3] = system: SMN protein in spinal muscular atrophy (SMA) patient fibroblasts (GM03813, Coriell); assay: SMN protein assay, Mesoscale Discovery (MSD); format: cell-based, human; conditions: SMA patient fibroblasts GM03813, 48 hours, MSD; read-out: SMN2 protein EC50
Summary of the method: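 SMA patient fibroblasts (GM03813) seeded at 7000 cells/well and exposed to compound at 2.5 μM to 0.6 nM for 48 hours. Lysates assayed for SMN by MSD immunoassay, with absolute SMN amount calculated from a per-plate SMN standard curve (1 μg/ml to 19.5 pg/ml).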

MDR1 (P-gp) = assay: Blood-brain-barrier (BBB) penetration potential via MDCK-MDR1 permeability assay; conditions: dog; for Papp A→B at 120 min, 5 μM: MDCK-MDR1, pH 7.4, MDCK-MDR1: Papp A-B, A-B direction; for Papp B→A at 120 min, 5 μM: MDCK-MDR1, pH 7.4, MDCK-MDR1: Papp B-A, B-A direction
[4] = system: MDR1-MDCK cell monolayers; assay: as above; conditions: for MDCK-MDR1: % Recov A-B: A-B direction; for MDCK-MDR1: % Recov B-A: B-A direction
MDR1 = assay: as above; conditions: dog, MDCK-MDR1, pH 7.4, MDCK-MDR1: Efflux, efflux ratio
[5] = Quantitative splicing assay (HTT), qPCR; format: cell-based, human; conditions: Homo sapiens, GM04724, 24 h, GM04724 lymphoblasts, qPCR, read-out: HTT Splicing: E49-50 EC50
Summary of the method: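 Patient lymphoblasts (50,000 cells/well) dosed immediately after plating for 24 h at 2.5 uM to 0.15 nM in 0.1% DMSO. Lysed, cDNA made directly from cells, and inclusion of the intron 49 cryptic exon quantified by TaqMan qPCR.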

## Cc1cc(=O)c2cc(O)c(-c3ccc(N(C)[C@@H]4C[C@H]5CC[C@H](N5)[C@@H]4F)nn3)cc2o1 [Compound 49A, 7-(6-(((1S,2S,3R,5R)-2-fluoro-8-azabicyclo[3.2.1]octan-3-yl)(methyl)amino)pyridazin-3-yl)-6-hydroxy-2-methyl-4H-chromen-4-one]
[1]
  EC50: 16 to 50 nM
[2]
  EC50: 0.01 to 15 nM
[3]
  EC50: 0.01 to 15 nM
MDR1 (P-gp)
  Papp A→B at 120 min, 5 μM: 0.72 ×10⁻⁶ cm/s
  Papp B→A at 120 min, 5 μM: 30.7 ×10⁻⁶ cm/s
[4]
  MDCK-MDR1: % Recov A-B: 93%
  MDCK-MDR1: % Recov B-A: 78%
MDR1
  efflux ratio at 120 min, 5 μM: 43
[5]
  EC50: 16 to 50 nM

## CN(c1ccc(-c2ccc(-n3ccnc3)cc2O)nn1)[C@@H]1C[C@H]2CC[C@H](N2)[C@@H]1F [Compound 4A, 2-(6-(((1S,2S,3R,5R)-2-fluoro-8-azabicyclo[3.2.1]octan-3-yl)(methyl)amino)pyridazin-3-yl)-5-(1H-imidazol-1-yl)phenol]
[1]
  EC50: 16 to 50 nM
[2]
  EC50: 51 to 100 nM
[3]
  EC50: 0.01 to 15 nM
MDR1 (P-gp)
  Papp A→B at 120 min, 5 μM: 2.75 ×10⁻⁶ cm/s
  Papp B→A at 120 min, 5 μM: 44.8 ×10⁻⁶ cm/s
[4]
  MDCK-MDR1: % Recov A-B: 86%
  MDCK-MDR1: % Recov B-A: 73%
MDR1
  efflux ratio at 120 min, 5 μM: 16
[5]
  EC50: 16 to 50 nM

## CN(c1ccc(-c2cc3ncccc3cc2O)nn1)[C@@H]1C[C@H]2CC[C@H](N2)[C@@H]1F [Compound 73A, 7-(6-(((1S,2S,3R,5R)-2-fluoro-8-azabicyclo[3.2.1]octan-3-yl)(methyl)amino)pyridazin-3-yl)quinolin-6-ol]
[1]
  EC50: 0.01 to 15 nM
[2]
  EC50: 0.01 to 15 nM
[3]
  EC50: 0.01 to 15 nM
MDR1 (P-gp)
  Papp A→B at 120 min, 5 μM: 2.92 ×10⁻⁶ cm/s
  Papp B→A at 120 min, 5 μM: 61.3 ×10⁻⁶ cm/s
[4]
  MDCK-MDR1: % Recov A-B: 76%
  MDCK-MDR1: % Recov B-A: 91%
MDR1
  efflux ratio at 120 min, 5 μM: 21
[5]
  EC50: 0.01 to 15 nM

## CN(c1ccc(-c2ccc(-n3ccnc3)cc2O)nn1)[C@H]1C[C@@H]2CCC[C@@H](N2)[C@H]1F [Compound 11B, 2-(6-(((1R,2R,3S,5S)-2-fluoro-9-azabicyclo[3.3.1]nonan-3-yl)(methyl)amino)pyridazin-3-yl)-5-(1H-imidazol-1-yl)phenol]
[1]
  EC50: 0.01 to 15 nM
[2]
  EC50: 0.01 to 15 nM
[3]
  EC50: 16 to 50 nM
MDR1 (P-gp)
  Papp A→B at 120 min, 5 μM: 2.4 ×10⁻⁶ cm/s
  Papp B→A at 120 min, 5 μM: 55 ×10⁻⁶ cm/s
[4]
  MDCK-MDR1: % Recov A-B: 77%
  MDCK-MDR1: % Recov B-A: 89%
MDR1
  efflux ratio at 120 min, 5 μM: 23
[5]
  EC50: 0.01 to 15 nM

## O=C(c1cc2cc(O)c(-c3ccc(N(C4CC4)[C@H]4C[C@@H]5CC[C@@H](N5)[C@H]4F)nn3)cc2o1)N1CCC1 [Compound 57B, azetidin-1-yl(6-(6-(cyclopropyl((1R,2R,3S,5S)-2-fluoro-8-azabicyclo[3.2.1]octan-3-yl)amino)pyridazin-3-yl)-5-hydroxybenzofuran-2-yl)methanone]
[1]
  EC50: 0.01 to 15 nM
[2]
  EC50: 16 to 50 nM
[3]
  EC50: 0.01 to 15 nM
MDR1 (P-gp)
  Papp A→B at 120 min, 5 μM: 0.69 ×10⁻⁶ cm/s
  Papp B→A at 120 min, 5 μM: 48.5 ×10⁻⁶ cm/s
[4]
  MDCK-MDR1: % Recov A-B: 99%
  MDCK-MDR1: % Recov B-A: 95%
MDR1
  efflux ratio at 120 min, 5 μM: 71
[5]
  EC50: 16 to 50 nM

## CN(c1ccc(-c2ccc(-c3cnn(C)c3)cc2O)nn1)[C@H]1C[C@@H]2CCC[C@@H](N2)[C@@H]1F [Compound 14B, 2-(6-(((1R,2S,3S,5S)-2-fluoro-9-azabicyclo[3.3.1]nonan-3-yl)(methyl)amino)pyridazin-3-yl)-5-(1-methyl-1H-pyrazol-4-yl)phenol]
[1]
  EC50: 0.01 to 15 nM
[2]
  EC50: 51 to 100 nM
[3]
  EC50: 0.01 to 15 nM
MDR1 (P-gp)
  Papp A→B at 120 min, 5 μM: 2.95 ×10⁻⁶ cm/s
  Papp B→A at 120 min, 5 μM: 32.1 ×10⁻⁶ cm/s
[4]
  MDCK-MDR1: % Recov A-B: 54%
  MDCK-MDR1: % Recov B-A: 91%
MDR1
  efflux ratio at 120 min, 5 μM: 11
[5]
  EC50: 0.01 to 15 nM

## CN(c1ccc(-c2cc3ccncc3cc2O)nn1)[C@@H]1C[C@H]2CC[C@H](N2)[C@@H]1F (single isomer, unassigned) [Compound 87A]
[1]
  EC50: 51 to 100 nM
[2]
  EC50: 101 to 500 nM
[3]
  EC50: 0.01 to 15 nM
MDR1 (P-gp)
  Papp A→B at 120 min, 5 μM: 5.33 ×10⁻⁶ cm/s
  Papp B→A at 120 min, 5 μM: 43.1 ×10⁻⁶ cm/s
[4]
  MDCK-MDR1: % Recov A-B: 59%
  MDCK-MDR1: % Recov B-A: 79%
MDR1
  efflux ratio at 120 min, 5 μM: 8
[5]
  EC50: 51 to 100 nM
